Test system: 598228-144-R-J1-PDC complex spheroids, viability
Test: Anticancer human tumor 598228-144-R-J1-PDC patient-derived serous endometrial adenocarcinoma cell line growth inhibition [CLK]
Settings: for IC50: curve of first compound; for viability, T/C: stronger effect = lower value
Source text: A high-throughput screen of multi-cell type tumor spheroids was designed to identify active combinations of […] and targeted small molecules. Complex spheroids include a stromal component modeled by human endothelial cells (HUVEC) and fibroblasts modeled by human mesenchymal stem cells (MSCs). The concentration ranges selected for each drug and investigational agent were based upon clinically achievable concentrations if the clinical Cmax of the agent was known.
Compounds. The drugs and investigational agents: cirtuvivint (SM08502; NSC835563), CC-671 (NSC850746), vemurafenib (NSC761431), tapotoclax (NSC804041), sotorasib (NSC818433), adagrasib (NSC831453), MRTX-1133 (NSC836407), BAY2416964 (NSC825713), copanlisib (NSC816437), inavolisib (NSC800729), abemaciclib (NSC768073), osimertinib (NSC779217), entinostat (NSC756642), eltanexor (KPT-8602, NSC794443), venetoclax (NSC766270), ceralasertib (NSC777638), bortezomib (NSC756655), olaparib (NSC753686), talazoparib (NSC767125), alisertib (NSC759677), peposertib (NSC802822), gemcitabine (NSC613327), 5-fluorouracil (NSC19893), SN-38 (NSC673596), oxaliplatin (NSC266046), paclitaxel (NSC125973), and doxorubicin (NSC123127), were obtained from the National Cancer Institute (NCI) Developmental Therapeutics Program Chemical Repository. The FDA-approved anticancer drug set is available from the Developmental Therapeutics Program at https://dtp.cancer.gov/organization/dscb/obtaining/available plates.htm. […] The stock solutions were prepared in dimethyl sulfoxide (DMSO, Sigma-Aldrich, St. Louis, MO, cat. D2650), except for the platinum complexes which were prepared in saline (Quality Biological, Gaithersburg, MD, cat. 114-055-101), at 800-fold the tested concentration and stored at -70 degrees C prior to their use. All drugs and investigational agents were tested over a range starting from a high concentration at or near the clinical Cmax and decreasing in half-log increments. If the clinical Cmax for an agent had not been determined, the highest concentration tested was 10 microM.
Cell Culture. All cells were maintained in an incubator at 37 degrees C and 5% CO2 with 95% humidity. The PDC lines were cultured according to standard operating procedures established by the NCI PDMR. Briefly, all PDCs were thawed and cultured in Matrigel-coated flasks prepared with a working solution of 1X Ham's F-12 nutrient mix, without supplementation (Invitrogen, Waltham, MA, cat. 11765054), 100 U/mL penicillin-streptomycin (Invitrogen, cat. 15140122), and 2.5% Matrigel (Corning Inc., Corning, NY, cat. 354248) for the first three passages. The 947758-054-R-J2-PDC line was cultured in 6B/Colon 1A media, which includes advanced DMEM/F-12 (Thermo Fisher Scientific, cat. 12634028), 10 mM HEPES (Thermo Fisher Scientific, cat. 15630080), 1X GlutaMAX supplement (Thermo Fisher Scientific, cat. 35050061), 0.1 mg/mL primocin (InvivoGen, cat. ant-pm-2), 10% defined fetal bovine serum, heat inactivated (HyClone Laboratories Inc., cat. SH30070.03HI), 1.25 mM N-Acetyl-L-cysteine (Sigma-Aldrich, cat. A9165), 10 mM nicotinamide (Sigma-Aldrich, cat. N0636), 1X B-27 supplement (Thermo Fisher Scientific, cat. 17504044), 1X N-2 supplement (Thermo Fisher Scientific, cat. 17502048), and 10 microM Y-27632 dihydrochloride (Tocris Bioscience, cat. 1254). The 876862-298-R-J1-PDC was cultured in 6E media, which includes all 6B/Colon 1A media components plus 50% L-WRN conditioned media (ATCC, cat. CRL-3276), 50 ng/mL recombinant human EGF recombinant protein (hEGF; Thermo Fisher Scientific, cat. PHG0311), 10 ng/mL recombinant human fibroblast growth factor 10 (hGFG-10; PeproTech, cat. 100-26), 1 ng/mL recombinant human fibroblast growth factor 2 (hFGF-2; PeproTech, cat. 100-18B), and 1 µM prostaglandin E2 (PGE2; Tocris, cat. 2296). The 227483-062-R1-J1-PDC line was cultured in Panc media, containing all 6E components except hFGF-2, with the addition of 500 nM SB-431542 (Selleckchem, cat. S1067) and 10 nM gastrin (Tocris, cat. 3006). […]

[1] = second compound 0.0316 µM, first compound 0.0316 µM
[2] = second compound 0.0316 µM, first compound 0.1 µM
[3] = second compound 0.0316 µM, first compound 0.316 µM
[4] = second compound 0.0316 µM, first compound 1 µM
[5] = second compound 0.1 µM, first compound 0.0316 µM
[6] = second compound 0.1 µM, first compound 0.1 µM
[7] = second compound 0.1 µM, first compound 0.316 µM
[8] = second compound 0.1 µM, first compound 1 µM
[9] = second compound 0.316 µM, first compound 0.0316 µM
[10] = second compound 0.316 µM, first compound 0.1 µM
[11] = second compound 0.316 µM, first compound 0.316 µM
[12] = second compound 0.316 µM, first compound 1 µM
[13] = second compound 1 µM, first compound 0.0316 µM
[14] = second compound 1 µM, first compound 0.1 µM
[15] = second compound 1 µM, first compound 0.316 µM
[16] = second compound 1 µM, first compound 1 µM
[17] = second compound 3.16 µM, first compound 0.0316 µM
[18] = second compound 3.16 µM, first compound 0.1 µM
[19] = second compound 3.16 µM, first compound 0.316 µM
[20] = second compound 3.16 µM, first compound 1 µM
[21] = second compound 10 µM, first compound 0.0316 µM
[22] = second compound 10 µM, first compound 0.1 µM
[23] = second compound 10 µM, first compound 0.316 µM
[24] = second compound 10 µM, first compound 1 µM
[25] = second compound 0.0316 µM, first compound 0.00316 µM
[26] = second compound 0.0316 µM, first compound 0.01 µM
[27] = second compound 0.1 µM, first compound 0.00316 µM
[28] = second compound 0.1 µM, first compound 0.01 µM
[29] = second compound 0.316 µM, first compound 0.00316 µM
[30] = second compound 0.316 µM, first compound 0.01 µM
[31] = second compound 1 µM, first compound 0.00316 µM
[32] = second compound 1 µM, first compound 0.01 µM
[33] = second compound 3.16 µM, first compound 0.00316 µM
[34] = second compound 3.16 µM, first compound 0.01 µM
[35] = second compound 10 µM, first compound 0.00316 µM
[36] = second compound 10 µM, first compound 0.01 µM
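Also: spheroids exposed to compounds for seven days before readout.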
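For viability, T/C in this document: 100% = DMSO vehicle control wells.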

CC(Nc1ccc2c(c1)OCCn1cc(N3C(=O)OCC3C(F)F)nc1-2)C(N)=O (stereo unspecified) + CN1CCN(c2cc(C(=O)Nc3cc4cc(-c5cnn(C)c5)ccc4cn3)ccn2)CC1
IC50 (second compound 0.0316 µM): 885 nM | IC50 (second compound 0.1 µM): 271 nM | IC50 (second compound 0.316 µM): < 31.6 nM | IC50 (second compound 1 µM): < 31.6 nM | IC50 (second compound 3.16 µM): < 31.6 nM | IC50 (second compound 10 µM): < 31.6 nM | viability, T/C [1]: 97.7% | viability, T/C [2]: 66.2% | viability, T/C [3]: 67% | viability, T/C [4]: 47.1% | viability, T/C (second compound 0.0316 µM, first compound 3.16 µM): 40.3% | viability, T/C (second compound 0.0316 µM, first compound 10 µM): 24.4% | viability, T/C [5]: 87.9% | viability, T/C [6]: 64.3% | viability, T/C [7]: 44.9% | viability, T/C [8]: 38.6% | viability, T/C (second compound 0.1 µM, first compound 3.16 µM): 26.5% | viability, T/C (second compound 0.1 µM, first compound 10 µM): 18.3% | viability, T/C [9]: 12.3% | viability, T/C [10]: 9.13% | viability, T/C [11]: 10.7% | viability, T/C [12]: 6.85% | viability, T/C (second compound 0.316 µM, first compound 3.16 µM): 4.58% | viability, T/C (second compound 0.316 µM, first compound 10 µM): 7.75% | viability, T/C [13]: 1.13% | viability, T/C [14]: 0.87% | viability, T/C [15]: 2.39% | viability, T/C [16]: 0.6% | viability, T/C (second compound 1 µM, first compound 3.16 µM): 0.73% | viability, T/C (second compound 1 µM, first compound 10 µM): 0.42% | viability, T/C [17]: 1.56% | viability, T/C [18]: 1.01% | viability, T/C [19]: 0.62% | viability, T/C [20]: 0.69% | viability, T/C (second compound 3.16 µM, first compound 3.16 µM): 1.66% | viability, T/C (second compound 3.16 µM, first compound 10 µM): 1.62% | viability, T/C [21]: 0.62% | viability, T/C [22]: 0.46% | viability, T/C [23]: 1.49% | viability, T/C [24]: 0.44% | viability, T/C (second compound 10 µM, first compound 3.16 µM): 4.05% | viability, T/C (second compound 10 µM, first compound 10 µM): 2.58%

CCN1CCN(Cc2ccc(Nc3ncc(F)c(-c4cc(F)c5nc(C)n(C(C)C)c5c4)n3)nc2)CC1 + CN1CCN(c2cc(C(=O)Nc3cc4cc(-c5cnn(C)c5)ccc4cn3)ccn2)CC1
IC50 (second compound 0.0316 µM): > 1000 nM | IC50 (second compound 0.1 µM): > 1000 nM | IC50 (second compound 0.316 µM): < 3.16 nM | IC50 (second compound 1 µM): < 3.16 nM | IC50 (second compound 3.16 µM): < 3.16 nM | IC50 (second compound 10 µM): < 3.16 nM | viability, T/C [25]: 126% | viability, T/C [26]: 113% | viability, T/C [1]: 119% | viability, T/C [2]: 112% | viability, T/C [3]: 116% | viability, T/C [4]: 103% | viability, T/C [27]: 125% | viability, T/C [28]: 122% | viability, T/C [5]: 115% | viability, T/C [6]: 115% | viability, T/C [7]: 123% | viability, T/C [8]: 107% | viability, T/C [29]: 17.8% | viability, T/C [30]: 17.6% | viability, T/C [9]: 15.1% | viability, T/C [10]: 19.9% | viability, T/C [11]: 20.7% | viability, T/C [12]: 24.4% | viability, T/C [31]: 1.42% | viability, T/C [32]: 5.67% | viability, T/C [13]: 1.8% | viability, T/C [14]: 1.54% | viability, T/C [15]: 1.56% | viability, T/C [16]: 6.64% | viability, T/C [33]: 1.54% | viability, T/C [34]: 3.86% | viability, T/C [17]: 2.86% | viability, T/C [18]: 1.78% | viability, T/C [19]: 2.22% | viability, T/C [20]: 5.76% | viability, T/C [35]: 1% | viability, T/C [36]: 3.61% | viability, T/C [21]: 0.93% | viability, T/C [22]: 1.25% | viability, T/C [23]: 3.23% | viability, T/C [24]: 3.64%

COc1c(OCCCN2CCOCC2)ccc2c3n(c(=NC(=O)c4cnc(N)nc4)nc12)CCN3 + CN1CCN(c2cc(C(=O)Nc3cc4cc(-c5cnn(C)c5)ccc4cn3)ccn2)CC1
IC50 (second compound 0.0316 µM): 30.9 nM | IC50 (second compound 0.1 µM): 19.5 nM | IC50 (second compound 0.316 µM): < 3.16 nM | IC50 (second compound 1 µM): < 3.16 nM | IC50 (second compound 3.16 µM): < 3.16 nM | IC50 (second compound 10 µM): < 3.16 nM | viability, T/C [25]: 98.2% | viability, T/C [26]: 75.7% | viability, T/C [1]: 46.8% | viability, T/C [2]: 31.9% | viability, T/C [3]: 15.7% | viability, T/C [4]: 8.56% | viability, T/C [27]: 85.5% | viability, T/C [28]: 66.5% | viability, T/C [5]: 36.7% | viability, T/C [6]: 23.5% | viability, T/C [7]: 9.69% | viability, T/C [8]: 10.4% | viability, T/C [29]: 10.5% | viability, T/C [30]: 8.73% | viability, T/C [9]: 5.42% | viability, T/C [10]: 2.85% | viability, T/C [11]: 2.66% | viability, T/C [12]: 2.22% | viability, T/C [31]: 1.16% | viability, T/C [32]: 0.94% | viability, T/C [13]: 0.73% | viability, T/C [14]: 0.29% | viability, T/C [15]: 1.53% | viability, T/C [16]: 3.1% | viability, T/C [33]: 0.95% | viability, T/C [34]: 2.7% | viability, T/C [17]: 0.9% | viability, T/C [18]: 0.57% | viability, T/C [19]: 1.8% | viability, T/C [20]: 4.26% | viability, T/C [35]: 0.66% | viability, T/C [36]: 2.16% | viability, T/C [21]: 2.49% | viability, T/C [22]: 0.4% | viability, T/C [23]: 0.59% | viability, T/C [24]: 3.39%
